What follows are molecules tested against RIPK1 (Homo sapiens (Human), UniProt Q13546) (assay: ADP-Glo Kinase Assay). Conditions: 5 nM RIPK1 protein, 50 μM ATP, 6 hr reaction, average value across multiple runs.
Chain of RIPK1 (Q13546 1-327): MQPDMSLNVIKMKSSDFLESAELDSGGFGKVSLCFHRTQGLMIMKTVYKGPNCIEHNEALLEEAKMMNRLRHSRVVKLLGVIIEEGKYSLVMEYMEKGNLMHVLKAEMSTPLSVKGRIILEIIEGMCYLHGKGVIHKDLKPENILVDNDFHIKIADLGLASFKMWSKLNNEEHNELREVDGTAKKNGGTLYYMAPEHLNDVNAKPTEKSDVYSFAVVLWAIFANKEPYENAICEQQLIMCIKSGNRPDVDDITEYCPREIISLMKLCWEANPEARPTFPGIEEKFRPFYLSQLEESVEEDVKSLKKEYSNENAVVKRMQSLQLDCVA
Type: biochemical
Method: In order to measure RIPK1 activity the ADP-Glo kinase assay (Promega, Catalog #V7002) was used to measure the conversion of ATP to ADP. This enzymatic assay was performed in a 384-well white, Optiplate (Perkin Elmer, Catalog #6007299) with assay buffer consisting of 50 mM HEPES pH 7.5 (Gibco, Catalog #15630-080), 50 mM NaCl (Teknova, Catalog #S0252), 30 mM MgCl2 (Ambion, Catalog #AM9530G), 1 mM DTT (Santa Cruz Biotechnology, Catalog #sc-29089), 0.05% BSA (Sigma, Catalog #A3059-50G) and 0.02% CHAPS (Sigma, Catalog #C5070-5G). Stock solutions of the test compounds were prepared in 100% DMSO (Sigma, Catalog #D2650) and serially diluted 1:3 using 100% DMSO. Compounds were additionally diluted 1:40 in assay buffer, and 2 μL/well were transferred to the assay plate. 4 μL/well (final concentration of 5 nM) of RIPK1 protein (SignalChem, Catalog #R07-11G-05) diluted in assay buffer and added to the assay plate followed by a 10 minute preincutation at room temperature. 4 μL/well of ATP (Promega, Catalog #V7002) (final concentration of 50 μM) diluted in assay buffer were then added to the assay plate followed by a 6 hr reaction time. Final concentrations of RIPK1 and ATP refer to a 10 μL volume. Luminescence was measured using a BioTek Synergy™ NEO plate reader. IC50 values were calculated using a four-parameter logistic curve fit using Genedata Screener software. Results are shown below in Table 4, where the average value across multiple runs is given.
`Cc1cc(=O)c(C(=O)Nc2cccc(Cl)c2F)nn1Cc1ccccc1` [Example 2, 1-Benzyl-N-(3-chloro-2-fluorophenyl)-6-methyl-4-oxo-1,4-dihydropyridazine-3-carboxamide] showed an IC50 of 0.823 µM. Work on `Cc1cc(=O)c(C(=O)NCc2cc(F)cc(F)c2)nn1-c1ccccc1` [Example 3, N-(3,5-difluorobenzyl)-6-methyl-4-oxo-1-phenyl-1,4-dihydropyridazine-3-carboxamide] yielded an IC50 of 10.2 µM. `Cc1cc(=O)c(C(=O)Nc2cccc(Cl)c2)nn1-c1ccccc1` [Example 4, N-(3-chlorophenyl)-6-methyl-4-oxo-1-phenyl-1,4-dihydropyridazine-3-carboxamide] showed an IC50 of 0.08 µM. `Cc1cc(=O)c(C(=O)Nc2cc(Cl)cc(C#N)c2)nn1-c1ccccc1` [Example 5, N-(3-chloro-5-cyanophenyl)-6-methyl-4-oxo-1-phenyl-1,4-dihydropyridazine-3-carboxamide] showed an IC50 of 1.78 µM. For `Cc1cc(=O)c(C(=O)Nc2ccccc2)nn1-c1cccc(Cl)c1F` [Example 7, 1-(3-chloro-2-fluorophenyl)-6-methyl-4-oxo-N-phenyl-1,4-dihydropyridazine-3-carboxamide], the IC50 was 1.6 µM. `Cc1cc(=O)c(C(=O)Nc2cncc(Cl)c2)nn1-c1ccccc1` [Example 10, N-(5-chloropyridin-3-yl)-6-methyl-4-oxo-1-phenyl-1,4-dihydropyridazine-3-carboxamide] gave an IC50 of 0.39 µM. In the case of `Cc1cc(=O)c(C(=O)Nc2ccn3nccc3c2)nn1-c1ccccc1` [Example 11, 6-methyl-4-oxo-1-phenyl-N-(pyrazolo[1,5-a]pyridin-5-yl)-1,4-dihydropyridazine-3-carboxamide], the IC50 is reported as 15.4 µM. In the case of `Cc1cc(=O)c(C(=O)Nc2cc(Cl)c3ncsc3c2)nn1-c1ccccc1` [Example 12, N-(4-chlorobenzo[d]thiazol-6-yl)-6-methyl-4-oxo-1-phenyl-1,4-dihydropyridazine-3-carboxamide], the IC50 is reported as 1.18 µM. `Cc1cc(=O)c(C(=O)Nc2ccc3nn[nH]c3c2)nn1-c1ccccc1` [Example 13, N-(1H-benzo[d][1,2,3]triazol-6-yl)-6-methyl-4-oxo-1-phenyl-1,4-dihydropyridazine-3-carboxamide] was tested, and the IC50 was 7.92 µM. Molecule `Cc1nn(C)c(C)c1NC(=O)c1nn(-c2ccccc2)c(C)cc1=O` [Example 14, 6-methyl-4-oxo-1-phenyl-N-(1,3,5-trimethyl-1H-pyrazol-4-yl)-1,4-dihydropyridazine-3-carboxamide] has an IC50 of 4.61 µM. For `Cc1cc(NC(=O)c2nn(-c3ccccc3)c(C)cc2=O)ncn1` [Example 15, 6-methyl-N-(6-methylpyrimidin-4-yl)-4-oxo-1-phenyl-1,4-dihydropyridazine-3-carboxamide], the IC50 was 13.6 µM. Work on `Cc1noc(C)c1NC(=O)c1nn(-c2ccccc2)c(C)cc1=O` [Example 16, N-(3,5-dimethylisoxazol-4-yl)-6-methyl-4-oxo-1-phenyl-1,4-dihydropyridazine-3-carboxamide] yielded an IC50 of 4.4 µM. `Cc1cc(=O)c(C(=O)Nc2cc(Cl)c3cn[nH]c3c2)nn1-c1ccccc1` [Example 18, N-(4-chloro-1H-indazol-6-yl)-6-methyl-4-oxo-1-phenyl-1,4-dihydropyridazine-3-carboxamide] gave an IC50 of 4.71 µM. Work on `Cc1n[nH]c(C)c1NC(=O)c1nn(-c2ccccc2)c(C)cc1=O` [Example 19, N-(3,5-dimethyl-1H-pyrazol-4-yl)-6-methyl-4-oxo-1-phenyl-1,4-dihydropyridazine-3-carboxamide] yielded an IC50 of 12.6 µM. `Cc1nccc(NC(=O)c2nn(-c3ccccc3)c(C)cc2=O)n1` [Example 20, 6-methyl-N-(2-methylpyrimidin-4-yl)-4-oxo-1-phenyl-1,4-dihydropyridazine-3-carboxamide] showed an IC50 of 4.46 µM. For `Cc1cc(=O)c(C(=O)Nc2ccc(C#N)s2)nn1-c1ccccc1` [Example 21, N-(5-cyanothiophen-2-yl)-6-methyl-4-oxo-1-phenyl-1,4-dihydropyridazine-3-carboxamide], the IC50 was 0.636 µM. `Cc1cccc(C)c1NC(=O)c1nn(-c2ccccc2)c(C)cc1=O` [Example 22, N-(2,6-dimethylphenyl)-6-methyl-4-oxo-1-phenyl-1,4-dihydropyridazine-3-carboxamide] gave an IC50 of 1.5 µM. Work on `Cc1cc(=O)c(C(=O)Nc2c3c(nc4ccccc24)CCCC3)nn1-c1ccccc1` [Example 23, 6-methyl-4-oxo-1-phenyl-N-(1,2,3,4-tetrahydroacridin-9-yl)-1,4-dihydropyridazine-3-carboxamide] yielded an IC50 of 1.14 µM. `Cc1ncnc(C)c1NC(=O)c1nn(-c2ccccc2)c(C)cc1=O` [Example 25, N-(4,6-dimethylpyrimidin-5-yl)-6-methyl-4-oxo-1-phenyl-1,4-dihydropyridazine-3-carboxamide] was tested, and the IC50 was 3.87 µM. Work on `Cc1cc(=O)c(C(=O)Nc2c(F)cccc2C(C)C)nn1-c1ccccc1` [Example 27, N-(2-fluoro-6-isopropylphenyl)-6-methyl-4-oxo-1-phenyl-1,4-dihydropyridazine-3-carboxamide] yielded an IC50 of 1.46 µM. With `Cc1cccc(C(C)(C)C)c1NC(=O)c1nn(-c2ccccc2)c(C)cc1=O` [Example 28, N-(2-(tert-butyl)-6-methylphenyl)-6-methyl-4-oxo-1-phenyl-1,4-dihydropyridazine-3-carboxamide] the IC50 was 2.68 µM. In the case of `Cc1cccc(C(F)(F)F)c1NC(=O)c1nn(-c2ccccc2)c(C)cc1=O` [Example 29, 6-methyl-N-(2-methyl-6-(trifluoromethyl)phenyl)-4-oxo-1-phenyl-1,4-dihydropyridazine-3-carboxamide], the IC50 is reported as 1.15 µM. Work on `Cc1cc(=O)c(C(=O)Nc2ccccc2C2CC2)nn1-c1ccccc1` [Example 30, N-(2-cyclopropylphenyl)-6-methyl-4-oxo-1-phenyl-1,4-dihydropyridazine-3-carboxamide] yielded an IC50 of 15.5 µM. `Cc1cnc2ccccc2c1NC(=O)c1nn(-c2ccccc2)c(C)cc1=O` [Example 31, 6-methyl-N-(3-methylquinolin-4-yl)-4-oxo-1-phenyl-1,4-dihydropyridazine-3-carboxamide] gave an IC50 of 0.519 µM. With `Cc1cc(=O)c(C(=O)Nc2c(C(C)C)ncnc2C(C)C)nn1-c1ccccc1` [Example 34, N-(4,6-diisopropylpyrimidin-5-yl)-6-methyl-4-oxo-1-phenyl-1,4-dihydropyridazine-3-carboxamide] the IC50 was 3.91 µM. In the case of `COCc1cc(=O)c(C(=O)Nc2cccc(Cl)c2F)nn1-c1ccccc1` [Example 35, N-(3-chloro-2-fluorophenyl)-6-(methoxymethyl)-4-oxo-1-phenyl-1,4-dihydropyridazine-3-carboxamide], the IC50 is reported as 1.78 µM. With `CN1C(=O)C(NC(=O)c2nn(-c3ccccc3)c(CCl)c(Cl)c2=O)CCc2cc(Cl)ccc21` (stereo not drawn) [Example 46, 5-chloro-N-(7-chloro-1-methyl-2-oxo-2,3,4,5-tetrahydro-1H-benzo[b]azepin-3-yl)-6-(chloromethyl)-4-oxo-1-phenyl-1,4-dihydropyridazine-3-carboxamide] the IC50 was 1.44 µM. `Cc1ccc(-n2nc(C(=O)NC3CCc4ccccc4NC3=O)c(=O)cc2C)cc1F` (stereo not drawn) [Example 52, 1-(3-fluoro-4-methylphenyl)-6-methyl-4-oxo-N-(2-oxo-2,3,4,5-tetrahydro-1H-benzo[b]azepin-3-yl)-1,4-dihydro-pyridazine-3-carboxamide] gave an IC50 of 0.037 µM. Molecule `Cc1cc(=O)c(C(=O)Nc2nc(C(F)(F)F)c(Br)s2)nn1-c1ccccc1` [Example 84, N-(5-bromo-4-(trifluoromethyl)thiazol-2-yl)-6-methyl-4-oxo-1-phenyl-1,4-dihydropyridazine-3-carboxamide] has an IC50 of 33.3 µM. `Cc1cc(=O)c(C(=O)NC(C)(C)C)nn1-c1ccccc1` [Example 85, N-(tert-butyl)-6-methyl-4-oxo-1-phenyl-1,4-dihydropyridazine-3-carboxamide] showed an IC50 of 38.8 µM. Molecule `Cc1nocc1NC(=O)c1nn(-c2ccccc2)c(C)cc1=O` [Example 86, 6-methyl-N-(3-methylisoxazol-4-yl)-4-oxo-1-phenyl-1,4-dihydropyridazine-3-carboxamide] has an IC50 of 17.6 µM. `Cc1cc(C)c2nc(NC(=O)c3nn(-c4ccccc4)c(C)cc3=O)sc2c1` [Example 87, N-(4,6-dimethylbenzo[d]thiazol-2-yl)-6-methyl-4-oxo-1-phenyl-1,4-dihydropyridazine-3-carboxamide] was tested, and the IC50 was 20.8 µM. `COCc1cc(=O)c(C(=O)Nc2cccc(Cl)c2F)nn1C` [Example 88, N-(3-chloro-2-fluorophenyl)-6-(methoxymethyl)-1-methyl-4-oxo-1,4-dihydropyridazine-3-carboxamide] showed an IC50 of 33.3 µM. With `Cc1cc(=O)c(C(=O)Nc2c(C(C)C)nn(C)c2C(C)C)nn1-c1ccccc1` [Example 89, N-(3,5-diisopropyl-1-methyl-1H-pyrazol-4-yl)-6-methyl-4-oxo-1-phenyl-1,4-dihydropyridazine-3-carboxamide] the IC50 was 18.6 µM. `Cc1cc(=O)c(C(=O)Nc2c(C(C)C)n[nH]c2C(C)C)nn1-c1ccccc1` [Example 90, N-(3,5-diisopropyl-1H-pyrazol-4-yl)-6-methyl-4-oxo-1-phenyl-1,4-dihydropyridazine-3-carboxamide] showed an IC50 of 41.9 µM. `Cc1cc(=O)c(C(=O)NC2CC2)nn1-c1ccccc1` [Example 91, N-cyclopropyl-6-methyl-4-oxo-1-phenyl-1,4-dihydropyridazine-3-carboxamide] showed an IC50 of 5.31 µM.

— patent US11690850B2, “Inhibitors of receptor interacting protein kinase I for the treatment of disease” (Board of Regents, The University of Texas System, priority 2019, dated 2023)
